Where a name gives a salt, the structure may show the parent alone. Marks after values point to notes of the source that are not given here.
Assays:
[1] = cited from earlier work
[2] = clinical; conditions: human, in vivo
Description: (§1) On Day 10, the victim and perpetrator IMPs were administered simultaneously.
(§2) On the evening before each dose, participants were provided with a light snack and were required to fast from all food and drink (except water) for a minimum of 10 hours until the following morning. All study interventions were administered in the fed state, following completion of a standard breakfast (with dosing planned to occur 30 minutes after the start of the breakfast).
(§3) The PK parameters underwent a natural logarithmic transformation and were analyzed using a mixed effect modelling technique. Adjusted geometric mean ratios and 90% confidence intervals (CIs) of the ratios were obtained for each comparison. The ratio was defined as test/reference. In addition, the intraparticipant variability were also presented. […] No formal interim analyses were performed for this study.

[3] = Example 3 Part 2 (Regimen B) dabigatran etexilate + belumosudil plasma PK; format: in vivo, human
Description: The ratio was defined as test/reference. In addition, the intraparticipant variability were also presented. […] No formal interim analyses were performed for this study.

[4] = metabolite exposure in clinical trials of the belumosudil development program; format: in vivo, human
[5] = target: ROCK2 (Homo sapiens, UniProt O75116); experiment: ROCK2 inhibition; format: biochemical
Sequence of ROCK2 (O75116 whole entry): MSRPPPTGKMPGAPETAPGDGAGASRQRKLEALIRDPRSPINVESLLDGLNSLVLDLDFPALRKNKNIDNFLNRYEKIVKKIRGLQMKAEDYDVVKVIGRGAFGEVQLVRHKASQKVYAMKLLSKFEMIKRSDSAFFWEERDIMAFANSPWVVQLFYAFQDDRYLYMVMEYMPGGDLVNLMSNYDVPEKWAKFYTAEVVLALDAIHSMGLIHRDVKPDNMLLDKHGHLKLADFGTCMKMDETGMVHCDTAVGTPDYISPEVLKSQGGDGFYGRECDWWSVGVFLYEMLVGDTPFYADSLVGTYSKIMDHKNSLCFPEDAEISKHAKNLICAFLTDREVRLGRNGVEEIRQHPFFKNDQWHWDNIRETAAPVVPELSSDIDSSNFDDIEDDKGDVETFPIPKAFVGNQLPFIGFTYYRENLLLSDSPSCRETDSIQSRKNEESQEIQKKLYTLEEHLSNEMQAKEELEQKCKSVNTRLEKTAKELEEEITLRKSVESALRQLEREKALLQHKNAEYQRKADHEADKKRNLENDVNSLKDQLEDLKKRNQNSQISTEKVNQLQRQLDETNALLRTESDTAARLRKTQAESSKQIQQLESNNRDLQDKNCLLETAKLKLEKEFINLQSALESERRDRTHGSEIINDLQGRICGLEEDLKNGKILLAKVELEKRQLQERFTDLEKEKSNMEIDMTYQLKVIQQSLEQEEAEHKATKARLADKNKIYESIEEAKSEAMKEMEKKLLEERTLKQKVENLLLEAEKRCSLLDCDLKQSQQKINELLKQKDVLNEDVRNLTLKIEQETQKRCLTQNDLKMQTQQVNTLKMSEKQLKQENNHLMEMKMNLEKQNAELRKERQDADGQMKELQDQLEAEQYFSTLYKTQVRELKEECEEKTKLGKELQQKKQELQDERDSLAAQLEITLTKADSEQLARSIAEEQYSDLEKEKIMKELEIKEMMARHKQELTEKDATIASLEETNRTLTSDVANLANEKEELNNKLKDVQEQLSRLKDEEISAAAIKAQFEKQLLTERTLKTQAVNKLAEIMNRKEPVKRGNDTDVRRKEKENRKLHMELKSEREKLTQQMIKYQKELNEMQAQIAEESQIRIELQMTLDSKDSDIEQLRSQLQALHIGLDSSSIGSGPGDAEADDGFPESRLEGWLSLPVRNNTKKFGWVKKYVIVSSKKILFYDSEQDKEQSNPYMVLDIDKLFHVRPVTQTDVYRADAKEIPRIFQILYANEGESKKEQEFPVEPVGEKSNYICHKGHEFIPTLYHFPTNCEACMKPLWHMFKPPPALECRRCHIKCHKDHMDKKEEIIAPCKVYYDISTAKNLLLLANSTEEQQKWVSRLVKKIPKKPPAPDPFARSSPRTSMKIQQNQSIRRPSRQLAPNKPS

[6] = clinical
Description: as §1, §2, §3

[7] = Raltegravir + belumosudil (Day 7), belumosudil 200 mg QD
[8] = Raltegravir alone (Day 1), 400 mg single dose
[9] = Regimen A, raltegravir 400 mg single dose + belumosudil 200 mg QD (Day 7)
[10] = Regimen A, raltegravir 400 mg single dose alone (Day 1)
[11] = raltegravir + belumosudil vs raltegravir alone
[12] = Dabigatran etexilate + belumosudil (Day 9), belumosudil 200 mg QD
[13] = Dabigatran etexilate alone (Day 1), 75 mg single dose
[14] = Regimen B, dabigatran etexilate 75 mg single dose + belumosudil 200 mg QD (Day 9)
[15] = dabigatran etexilate + belumosudil vs alone
[16] = dosed with belumosudil compared to dosing alone

## CC(C)NC(=O)COc1cccc(-c2nc(Nc3ccc4[nH]ncc4c3)c3ccccc3n2)c1 [Belumosudil mesylate, 2-{3-[4-(1H-indazol-5-ylamino)-2-quinazolinyl]phenoxy}-N-(propan-2-yl) acetamide methanesulfonate (1:1)]
[1]; DMF
  solubility in DMF: slightly soluble
[1]; DMSO
  solubility in DMSO: soluble
[1]; methanol
  solubility in methanol: slightly soluble
[1]; water
  solubility in water: practically insoluble

## NC(=O)COc1cccc(-c2nc(Nc3ccc4[nH]ncc4c3)c3ccccc3n2)c1 [KD025m1]
[2]
  median Tmax: 1.5 to 2 h
[2]; 200 mg
  AUC(0-last), geometric mean: 32.0 ng·h/mL
  Cmax, geometric mean: 17.1 ng/mL
  Tmax, median: 1.500 h
[3]; human, in vivo
  T1/2, individual participant value(s): 1.878^b h
  median Tmax: 1.5 to 2 h
[3]; human, in vivo, 200 mg
  AUC(0-last), geometric mean: 35.3 ng·h/mL
  Cmax, geometric mean: 19.5 ng/mL
  Tmax, median: 1.750 h
[4]
  exposure of metabolite relative to the parent: < 5%
[5]
  ROCK2 activity of metabolite: ROCK2 active
[6]; human, in vivo
  geometric mean T1/2: 1.6 to 2 h
  median Tmax: 1.5 to 3 h
[6]; human, in vivo, 200 mg
  AUC(0-last), geometric mean: 47.6 ng·h/mL
  AUC(0-tau), geometric mean: 96.6 ng·h/mL
  Cmax, geometric mean: 21.4 ng/mL
  T1/2, geometric mean: 1.621 h
  Tmax, median: 2.00 h

## O=C(O)COc1cccc(-c2nc(Nc3ccc4[nH]ncc4c3)c3ccccc3n2)c1 [KD025m2]
[2]
  increase of exposures (Cmax and AUC) following multiple dosing: 1.21-1.57 fold
  median Tmax: 1.5 to 2 h
[2]; 200 mg
  AUC(0-last), geometric mean: 557 ng·h/mL
  AUC(0-tau), geometric mean: 598 ng·h/mL
  Cmax, geometric mean: 215 ng/mL
  Tmax, median: 2.000 h
[3]; human, in vivo
  increase of exposures (Cmax and AUC) following multiple dosing: 1.27-1.42 fold
  median Tmax: 1.5 to 2 h
[3]; human, in vivo, 200 mg
  AUC(0-last), geometric mean: 692 ng·h/mL
  AUC(0-tau), geometric mean: 746 ng·h/mL
  Cmax, geometric mean: 184 ng/mL
  Tmax, median: 2.000 h
[5]
  ROCK2 activity of metabolite: ROCK2 inactive
[6]; human, in vivo
  increase of exposures (Cmax and AUC) following multiple dosing: 1.30-1.49 fold
  median Tmax: 1.5 to 3 h
[6]; human, in vivo, 200 mg
  AUC(0-last), geometric mean: 879 ng·h/mL
  AUC(0-tau), geometric mean: 961 ng·h/mL
  Cmax, geometric mean: 278 ng/mL
  Tmax, median: 2.00 h

## Cc1nnc(C(=O)NC(C)(C)c2nc(C(=O)NCc3ccc(F)cc3)c(O[C@@H]3O[C@H](C(=O)O)[C@@H](O)[C@H](O)[C@H]3O)c(=O)n2C)o1 [raltegravir glucuronide]
[6]; Part 1
  peak and overall exposure levels when raltegravir was dosed with belumosudil compared to dosing alone: notable decrease
[6]; Raltegravir + belumosudil (Day 7)
  MPR Cmax (metabolite to parent ratio): 0.299
[6]; [7]
  AUC(0-24), geometric mean: 1090 ng·h/mL
  AUC(0-inf), geometric mean: 1170 ng·h/mL
  AUC(0-last), geometric mean: 859 ng·h/mL
  Cmax, geometric mean: 207 ng/mL
  T1/2, geometric mean: approximately 3.9 h
  Tmax, median: 4.000 h
[6]; Raltegravir + belumosudil (Day 7), belumosudil 200 mg QD, listed as Raltegravir glucuronide
  T1/2, geometric mean: 3.919 h
[6]; Raltegravir alone (Day 1)
  MPR Cmax (metabolite to parent ratio): 0.506
[6]; [8]
  AUC(0-24), geometric mean: 1710 ng·h/mL
  AUC(0-inf), geometric mean: 1290 ng·h/mL
  AUC(0-last), geometric mean: 1420 ng·h/mL
  Cmax, geometric mean: 359 ng/mL
  T1/2, geometric mean: ~1.5 h
  Tmax, median: 4.000 h
[6]; Raltegravir alone (Day 1), 400 mg single dose, listed as Raltegravir glucuronide
  T1/2, geometric mean: 1.541 h
[6]; [9]
  AUC(0-last), adj geo mean: 859 ng·h/mL
  Cmax, adj geo mean: 207 ng/mL
[6]; [10]
  AUC(0-last), adj geo mean: 1420 ng·h/mL
  Cmax, adj geo mean: 359 ng/mL
[6]; [11]
  AUC(0-last), ratio of adj geo means (test/reference): 60.38%
  Cmax, ratio of adj geo means (test/reference): 57.58%

## Cc1nnc(C(=O)NC(C)(C)c2nc(C(=O)NCc3ccc(F)cc3)c(O)c(=O)n2C)o1 [raltegravir, reference compound]
[6]; [7]
  Tmax, median: 3.000 h
[6]; [8]
  Tmax, median: 3.000 h
[6]; male, human, in vivo, 400 mg
  AUC(0-inf): 1510 ng·h/mL
  Cmax, adj geo mean: 512 ng/mL
  Cmax, geometric mean: 520 ng/mL
  T1/2, geometric mean: 1.434 h
  half-life: ~1.4 h
[6]; male, human, in vivo, 400 mg, AUC(0-24), geometric mean
  AUC(0-t): 1970 ng·h/mL
[6]; male, human, in vivo, 400 mg, AUC(0-last), adj geo mean
  AUC(0-t): 1570 ng·h/mL
[6]; male, human, in vivo, 400 mg, AUC(0-last), geometric mean
  AUC(0-t): 1640 ng·h/mL

## CC(C)c1nc(N(C)S(C)(=O)=O)nc(-c2ccc(F)cc2)c1/C=C/[C@@H](O)C[C@@H](O)CC(=O)O [rosuvastatin, reference compound]
[2]; male
  increase of overall exposure level: 4.62 fold
  increase of peak exposure level: 3.59 fold
[2]; male, 10 mg
  AUC(0-inf): 25.4 ng·h/mL
  AUC(0-last), geometric mean: 13.6 ng·h/mL
  AUC(0-t): 13.6 ng·h/mL
  Cmax, adj geo mean: 2.96 ng/mL
  Cmax, geometric mean: 2.96 ng/mL

## [H]/N=C(/N)c1ccc(NCc2nc3cc(C(=O)N(CCC(=O)O)c4ccccn4)ccc3n2C)cc1 [unconjugated dabigatran, dabigatran, reference compound]
[3]; [12]
  AUC(0-last), geometric mean: 682 ng·h/mL
  Cmax, geometric mean: 99.5 ng/mL
  T1/2, geometric mean: 8.293 h
  Tmax, median: 2.000 h
[3]; [13]
  AUC(0-last), geometric mean: 317 ng·h/mL
  Cmax, geometric mean: 42.1 ng/mL
  T1/2, geometric mean: 8.128 h
  Tmax, median: 3.000 h
[3]; [14]
  AUC(0-last), adj geo mean: 682 ng·h/mL
  Cmax, adj geo mean: 99.5 ng/mL
[3]; Regimen B, dabigatran etexilate 75 mg single dose alone (Day 1)
  Cmax, adj geo mean: 42.1 ng/mL
[3]; coadministration of belumosudil
  increase of exposure: 2 fold
[3]; [15]
  AUC(0-inf), ratio of adj geo means (test/reference): 206.47%
  AUC(0-last), ratio of adj geo means (test/reference): 215.41%
  Cmax, ratio of adj geo means (test/reference): 236.06%
[3]; [16]
  increase of overall exposure level: 2.06 fold
  increase of peak exposure level: 2.36 fold
[3]; male, human, plasma, oral, 75 mg, Dabigatran etexilate alone (Day 1), 75 mg single dose, read-out: AUC(0-inf), geometric mean
  AUC(0-inf): 371 ng·h/mL
[3]; male, human, plasma, oral, 75 mg, Regimen B, dabigatran etexilate 75 mg single dose alone (Day 1), read-out: AUC(0-inf), adj geo mean
  AUC(0-inf): 398 ng·h/mL
[3]; male, human, plasma, oral, Dabigatran etexilate + belumosudil (Day 9), belumosudil 200 mg QD, read-out: AUC(0-inf), geometric mean
  AUC(0-inf): 801 ng·h/mL
[3]; male, human, plasma, oral, Regimen B, dabigatran etexilate 75 mg single dose + belumosudil 200 mg QD (Day 9), read-out: AUC(0-inf), adj geo mean
  AUC(0-inf): 822 ng·h/mL
[3]; male, human, plasma, oral, Regimen B, dabigatran etexilate 75 mg single dose alone (Day 1), read-out: AUC(0-last), adj geo mean
  AUC(0-t): 317 ng·h/mL

Reference: patent US20260232763A1 (Kadmon Corporation, LLC, priority 2023, published 2026)
